From US20230270754A1, “COMBINATION THERAPY FOR INHALATION ADMINISTRATION” (Chemo Research, S.L., priority 2020, published 2023) come the findings set out here.

Each structure is given as a SMILES string.

Common to all, as to format: physicochemical
Data set [1] can be described thus: APSD by NGI, Example 5 Symbicort pMDI vs soft mist inhaler. On the procedure:
The in vitro aerodynamic particle size distribution of both formulations was evaluated using an impactor, the next generation impactor, NGI (Copley Scientific Ltd) equipped with a mouthpiece adapter for the insertion of the inhaler, an induction port and an internal filter holder (IFH) to capture the smaller particles. The product was tested as per procedure detailed in the European and US Pharmacopoeia for Soft Mist Inhalers and pMDIs.
(§1) The NGI was cooled to 5° C. for at least 75 min. The cooling chamber was then opened and, after 30 minutes, the NGI was connected to a HCP5 vacuum pump (Copley Scientific Ltd). For each experiment, ten doses were discharged per NGI actuated at 28.3 L/min for 5 seconds each.
After the required actuations, the particles deposited on the different surfaces of the impactor were extracted using a suitable diluent (75/25 v/v MeOH/water) and with the help of a Gentle Rocker (Copley Scientific Ltd). Active ingredients were then quantified by HPLC, with the same methods described in example 4.
Data analysis. The NGI was plotted against the stage cut-off diameter as the mass recovered from the induction port to the filter. Fine particle fraction (FPF %), and mass median aerodynamic diameter (MMAD) were determined from the analysis of the NGI data.
(§2) Results are expressed as the mean value of two NGIs analysis.

The nature of data set [2]: APSD by NGI, Example 3 Foster pMDI vs soft mist inhaler. How it is done:
The in vitro aerodynamic assessment was carried using a next generation impactor, NGI (Copley Scientific Ltd), equipped with a mouthpiece adapter for the insertion of the inhaler, an induction port and an internal filter holder (IFH) to capture the smaller particles. The product was tested as per procedure detailed in the European and US Pharmacopeia for Soft Mist Inhalers and pMDIs.
The NGI was cooled to 5° C. for at least 75 min. The cooling chamber was then opened and, after 30 minutes, the NGI was connected to a HCP5 vacuum pump (Copley Scientific Ltd). For each experiment, ten doses were discharged into the NGI at 30 L/min for 5 seconds each.
After the required actuations, the particles deposited on the different surfaces of the impactor were extracted using a suitable diluent (methanol) and with the help of a Gentle Rocker (Copley Scientific Ltd). Active ingredients were then quantified by HPLC, with the same methods used for the Example 1.
Data analysis. The NGI was plotted against the stage cut-off diameter as the mass recovered from the induction port to the filter. Fine particle fraction (FPF %) and mass median aerodynamic diameter (MMAD) were determined from the analysis of the NGI data.
as §2

A short description of data set [3]: Active ingredient content after filtration (assay by Reverse Phase HPLC), Example 1. As to conditions: triple combination BDP/GB/FF; for Formulation 1 Assay (%) active ingredient content compared to the theoretical amount: Formulation 1: 70% Ethanol; for Formulation 2 Assay (%) active ingredient content compared to the theoretical amount: Formulation 2: 96% Ethanol. How it is done: Both formulations were filtrated, and individual assay of all active ingredients were tested by Reverse Phase HPLC.
Three independent Reverse Phase HPLC analytical methods were used for the determination of each active ingredient in all the analyses.

Data set [4] can be described thus: APSD by NGI, Example 2 Trimbow pMDI vs soft mist inhaler. On the procedure:
The in vitro aerodynamic assessment was carried using a next generation impactor, NGI (Copley Scientific Ltd), equipped with a mouthpiece adapter for the insertion of the inhaler, an induction port and an internal filter holder (IFH) to capture the smaller particles. The product was tested as per procedure detailed in the European pharmacopoeia chapter 2.9.18 (apparatus E) and US Pharmacopeia chapter <601> (apparatus 6) for Soft Mist Inhalers.
The NGI was cooled to 5° C. for at least 75 min. The cooling chamber was then opened and, after 30 minutes, the NGI was connected to a HCP5 vacuum pump (Copley Scientific Ltd). […]
After the required actuations, the particles deposited on the different surfaces of the impactor were extracted using a suitable diluent (methanol) and with the help of a Gentle Rocker (Copley Scientific Ltd).
(§3) Data analysis. The NGI results were plotted against the stage cut-off diameter as the mass recovered from the induction port to the filter. Fine particle fraction (FPF %), mass median aerodynamic diameter (MMAD), fine particle dose (FPD) were determined from the analysis of the NGI data.
as §2

Data set [5] can be described thus: Delivered dose by dose unit sampling apparatus (DUSA), Example 2. An excerpt: Active pharmaceutical ingredients (APIs) deposited in the sampling apparatus were quantitatively recovered with a DUSA shaker (Copley Scientific Ltd) and methanol. APIs were, then, quantified by HPLC with the same methods described in Example 1.
Results are expressed as the average of 5 measurements.

Data set [6] in a line: APSD by NGI, Example 4 budesonide/formoterol 70% vs 96% ethanol, soft mist inhaler. On the procedure:
Typical System Suitability Criteria applies as per USP <621> requirements.
For the APSD evaluation Formulation 1 and 2 were filled into cartridges compatible with a soft mist inhaler (Respimat®). The in vitro aerodynamic particle size distribution of both formulations was evaluated using an impactor, the next generation impactor, NGI (Copley Scientific Ltd) equipped with a mouthpiece adapter for the insertion of the inhaler, an induction port and an internal filter holder (IFH) to capture the smaller particles. The product was tested as per procedure detailed in the European pharmacopoeia chapter 2.9.18 (apparatus E) and US Pharmacopeia chapter <601> (apparatus 6) for Soft Mist Inhalers.
as §1
After the required actuations, the particles deposited on the different surfaces of the impactor were extracted using a suitable diluent (75/25 v/v MeOH/water) and with the help of a Gentle Rocker (Copley Scientific Ltd). Active ingredients were then quantified by HPLC as described above.
as §3, §2

Where [7] appears, read: Soft Mist Inhaler (1 actuation), budesonide/formoterol in 96% ethanol.
[8] abbreviates: Soft Mist Inhaler (1 actuation), double combination BDP/FF in 96% ethanol.
Where [9] appears, read: Trimbow pMDI (2 actuations), table title: Foster pMDI (2 actuation).
Setting [10] is: Soft Mist Inhaler (1 actuation), triple combination in 96% ethanol.
[11] abbreviates: Soft Mist Inhaler (Respimat) 1 actuation, triple combination in 96% ethanol.

Regarding `COc1ccc(C[C@@H](C)NC[C@H](O)c2ccc(O)c(NC=O)c2)cc1.O.O.O=C(O)/C=C/C(=O)O` (racemic) [Formoterol Fumarate], the “FPF (%)” value in data set [1] (setting [7]) stood at 89.7%; in data set [1] (Symbicort pMDI (1 actuation)) it was 58.7%; in data set [2] (setting [8]) it was 90.4%; in data set [2] (setting [9]), 45.8%. Also, the “MMAD (μm)” value in data set [1] (setting [7]) came out at 1.1 μm; in data set [1] (Symbicort pMDI (1 actuation)), 3.3 μm; in data set [2] (setting [8]) it was 1.2 μm; in data set [2] (setting [9]) it was 1.2 μm. For the same molecule, in data set [3], the “Formulation 1 Assay (%) active ingredient content compared to the theoretical amount” value is 93.8%. Moreover, in data set [3], the “Formulation 2 Assay (%) active ingredient content compared to the theoretical amount” value was 100.3%. Besides, the FPD in data set [4] (setting [10]) was determined as 5.3 µg; in data set [4] (Trimbow pMDI (2 actuations)), 5.2 µg; in data set [6] (Formulation 1 (70% EtOH)) it was 3.3 µg. Besides, the FPF in data set [4] (setting [10]) was determined as 87.8%; in data set [4] (Trimbow pMDI (2 actuations)), 44.6%; in data set [6] (Formulation 1 (70% EtOH)), 68.4%; in data set [6] (Formulation 2 (96% EtOH)) it was 89.7%. Also, the “IP (induction port deposition)” value is given as 8.3% in data set [4] (setting [10]) and 53.4% in data set [4] (Trimbow pMDI (2 actuations)). The “DUSA (μg) delivered dose” value in data set [5] (setting [11]) was 6.1 µg; in data set [5] (Trimbow pMDI 1 actuation), 5.7 µg. In addition, the MMAD in data set [6] (Formulation 1 (70% EtOH)) came to 2.7 μm.
On to `CCC(=O)OCC(=O)[C@@]1(OC(=O)CC)[C@@H](C)C[C@H]2[C@@H]3CCC4=CC(=O)C=C[C@]4(C)[C@@]3(Cl)[C@@H](O)C[C@@]21C` [Beclometasone Dipropionate, 9-chloro-11β,17,21-trihydroxy-16β-methylpregna-1,4-diene-3, 20-dione 17,21-dipropionate], for which, in data set [2] (setting [8]), the “FPF (%)” value is listed as 91.3% and the “MMAD (μm)” value worked out at 1.1 μm. For the same molecule, in data set [2] (setting [9]), the “FPF (%)” value is 49.4% and the “MMAD (μm)” value was determined as 1.2 μm. In data set [3], the “Formulation 1 Assay (%) active ingredient content compared to the theoretical amount” value is 40.1% and the “Formulation 2 Assay (%) active ingredient content compared to the theoretical amount” value came to 99.7%. In data set [4] (setting [10]), the FPD is 91.7 µg, the FPF was found to be 87.9%, the “IP (induction port deposition)” value is recorded as 8.3% and the MMAD was 1.2 μm. Besides, in data set [4] (Trimbow pMDI (2 actuations)), the FPD is 86.0 µg, the FPF worked out at 42.9%, the “IP (induction port deposition)” value stood at 52.9% and the MMAD is 1.2 μm. Moreover, in data set [5] (setting [11]), the “DUSA (μg) delivered dose” value is 97.1 µg. In addition, in data set [5] (Trimbow pMDI 1 actuation), the “DUSA (μg) delivered dose” value is 98.4 µg.
